Measurements as given in BindingDB's records for patent US20250188095 (Jiangsu Nhwa Pharmaceutical Co., 2025).

Biological target: T1, Orexin/Hypocretin receptor type 1 (Homo sapiens, UniProt O43613)
T1 sequence (O43613 whole entry): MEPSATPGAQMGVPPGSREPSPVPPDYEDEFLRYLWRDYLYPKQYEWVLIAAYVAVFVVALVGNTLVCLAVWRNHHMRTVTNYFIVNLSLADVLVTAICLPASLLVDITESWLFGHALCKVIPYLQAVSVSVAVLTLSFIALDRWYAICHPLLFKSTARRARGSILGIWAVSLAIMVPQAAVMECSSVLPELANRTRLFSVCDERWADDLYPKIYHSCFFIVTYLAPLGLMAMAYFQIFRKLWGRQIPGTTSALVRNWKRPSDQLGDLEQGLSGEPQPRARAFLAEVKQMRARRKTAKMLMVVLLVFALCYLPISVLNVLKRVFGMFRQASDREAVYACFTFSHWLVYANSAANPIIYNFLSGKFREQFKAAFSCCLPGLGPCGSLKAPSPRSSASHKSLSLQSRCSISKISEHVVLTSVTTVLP
Assay: In Vitro Activity Assay
Experimental: The cells were centrifuged at 1000 rpm for 5 min, and the supernatant was discarded. 3 mL of PBS was added, and the mixture was gently pipetted to be mixed well. The cells were centrifuged again at 1000 rpm for 5 min, and the supernatant was discarded.

Cc1cc(C)nc(N2C[C@H]3CN(C(=O)c4c(-c5ccsc5)cn5ccccc45)C[C@H]3C2)n1 [US20250188095, Example 17]
IC50: > 1 µM
